Laboratory results published in the supplement of paper PMC10883282.
± gives the standard deviation of the averaged measurements.

Experiments:
Test in all cases: relative viability vs DMSO control (72 h) (fraction); higher = more viable cells
KHOS-240S = system: KHOS-240S
Method in brief: (§1)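 Plates held 72 h at 37 °C and 5% CO2 contained sarcoma cell lines seeded in 384-well format to reach 80–90% confluence, plus 2.5 µl of serially diluted compound added after 24 h. Source plate concentrations ran from 10 mM to 0.0002 mM, with 0.1% DMSO as vehicle and a 5 µM positive control. Percent growth from ATPLite readings, averaged over up to triplicate wells, gave relative viability. Values were rescaled with 1 as full and 0 as none.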

RD = system: RD
Method in brief: as §1

SYO-1 = system: SYO-1
Method in brief: as §1

MES-SA = system: MES-SA
Method in brief: as §1

SW1353 = system: SW1353
Method in brief: as §1

SW982 = system: SW982
Method in brief: as §1

VA-ES-BJ = system: VA-ES-BJ
Method in brief: as §1

HT1080 = system: HT1080
Method in brief: as §1

SK-LMS-1 = system: SK-LMS-1
Method in brief: as §1

RD-ES = system: RD-ES
Method in brief: as §1

G401 = system: G401
Method in brief: as §1

SK-ES-1 = system: SK-ES-1
Method in brief: as §1

CCOc1cc2ncc(C#N)c(Nc3ccc(OCc4ccccn4)c(Cl)c3)c2cc1NC(=O)/C=C/[C@H]1CCCN1C [Pyrotinib]
Settings	relative viability
G401, 5.081 pM	1.04 ± 0.035
G401, 15.24 pM	1.03 ± 0.016
G401, 45.72 pM	1.03 ± 0.041
G401, 0.000137174 µM	1.05 ± 0.037
G401, 0.000411523 µM	1.06 ± 0.0079
G401, 0.00123457 µM	1.02 ± 0.035
G401, 0.0037037 µM	1.02 ± 0.021
G401, 0.0111111 µM	1.024 ± 0.0064
G401, 0.0333333 µM	1.02 ± 0.049
G401, 0.1 µM	1.02 ± 0.049
G401, 0.3 µM	1.01 ± 0.013
HT1080, 5.081 pM	1.07 ± 0.012
HT1080, 15.24 pM	1.13 ± 0.054
HT1080, 45.72 pM	1.103 ± 0.0081
HT1080, 0.000137174 µM	1.13 ± 0.014
HT1080, 0.000411523 µM	1.11 ± 0.019
HT1080, 0.00123457 µM	1.06 ± 0.027
HT1080, 0.0037037 µM	1.12 ± 0.012
HT1080, 0.0111111 µM	1.09 ± 0.021
HT1080, 0.0333333 µM	1.078 ± 0.01
HT1080, 0.1 µM	1.07 ± 0.03
HT1080, 0.3 µM	1.08 ± 0.052
KHOS-240S, 5.081 pM	1.07 ± 0.014
KHOS-240S, 15.24 pM	1.08 ± 0.036
KHOS-240S, 45.72 pM	1.06 ± 0.026
KHOS-240S, 0.000137174 µM	1.06 ± 0.054
KHOS-240S, 0.000411523 µM	1.05 ± 0.018
KHOS-240S, 0.00123457 µM	1.08 ± 0.026
KHOS-240S, 0.0037037 µM	1.07 ± 0.044
KHOS-240S, 0.0111111 µM	1.06 ± 0.058
KHOS-240S, 0.0333333 µM	1.09 ± 0.075
KHOS-240S, 0.1 µM	1.08 ± 0.041
KHOS-240S, 0.3 µM	1.05 ± 0.03
MES-SA, 5.081 pM	0.967 ± 0.018
MES-SA, 15.24 pM	0.957 ± 0.026
MES-SA, 45.72 pM	0.9512 ± 0.0085
MES-SA, 0.000137174 µM	0.959 ± 0.036
MES-SA, 0.000411523 µM	0.971 ± 0.043
MES-SA, 0.00123457 µM	0.965 ± 0.024
MES-SA, 0.0037037 µM	0.948 ± 0.023
MES-SA, 0.0111111 µM	0.954 ± 0.022
MES-SA, 0.0333333 µM	0.936 ± 0.051
MES-SA, 0.1 µM	0.91 ± 0.039
MES-SA, 0.3 µM	0.863 ± 0.021
RD, 5.081 pM	1.06 ± 0.033
RD, 15.24 pM	1.08 ± 0.02
RD, 45.72 pM	1.11 ± 0.016
RD, 0.000137174 µM	1.11 ± 0.032
RD, 0.000411523 µM	1.07 ± 0.063
RD, 0.00123457 µM	1.08 ± 0.07
RD, 0.0037037 µM	1.14 ± 0.018
RD, 0.0111111 µM	1.08 ± 0.078
RD, 0.0333333 µM	1.11 ± 0.025
RD, 0.1 µM	1.06 ± 0.041
RD, 0.3 µM	1.07 ± 0.056
RD-ES, 5.081 pM	0.971 ± 0.028
RD-ES, 15.24 pM	0.968 ± 0.014
RD-ES, 45.72 pM	0.969 ± 0.026
RD-ES, 0.000137174 µM	0.978 ± 0.032
RD-ES, 0.000411523 µM	0.983 ± 0.039
RD-ES, 0.00123457 µM	0.971 ± 0.017
RD-ES, 0.0037037 µM	0.965 ± 0.022
RD-ES, 0.0111111 µM	0.9672 ± 0.0053
RD-ES, 0.0333333 µM	0.953 ± 0.012
RD-ES, 0.1 µM	0.955 ± 0.047
RD-ES, 0.3 µM	0.95 ± 0.02
SK-ES-1, 5.081 pM	0.989 ± 0.035
SK-ES-1, 15.24 pM	1.02 ± 0.041
SK-ES-1, 45.72 pM	1.07 ± 0.028
SK-ES-1, 0.000137174 µM	1.07 ± 0.045
SK-ES-1, 0.000411523 µM	1.02 ± 0.034
SK-ES-1, 0.00123457 µM	1.04 ± 0.041
SK-ES-1, 0.0037037 µM	1.02 ± 0.047
SK-ES-1, 0.0111111 µM	1.04 ± 0.044
SK-ES-1, 0.0333333 µM	0.992 ± 0.058
SK-ES-1, 0.1 µM	0.987 ± 0.042
SK-ES-1, 0.3 µM	0.8694 ± 0.0074
SK-LMS-1, 5.081 pM	1.06 ± 0.042
SK-LMS-1, 15.24 pM	1.06 ± 0.049
SK-LMS-1, 45.72 pM	1.06 ± 0.037
SK-LMS-1, 0.000137174 µM	1.07 ± 0.06
SK-LMS-1, 0.000411523 µM	1.08 ± 0.03
SK-LMS-1, 0.00123457 µM	1.06 ± 0.036
SK-LMS-1, 0.0037037 µM	1.09 ± 0.067
SK-LMS-1, 0.0111111 µM	1.08 ± 0.035
SK-LMS-1, 0.0333333 µM	1.07 ± 0.026
SK-LMS-1, 0.1 µM	1.03 ± 0.049
SK-LMS-1, 0.3 µM	1 ± 0.014
SW982, 5.081 pM	1 ± 0.021
SW982, 15.24 pM	1.03 ± 0.039
SW982, 45.72 pM	1.05 ± 0.051
SW982, 0.000137174 µM	1.09 ± 0.032
SW982, 0.000411523 µM	1.05 ± 0.025
SW982, 0.00123457 µM	1.04 ± 0.049
SW982, 0.0037037 µM	1.03 ± 0.047
SW982, 0.0111111 µM	1.03 ± 0.032
SW982, 0.0333333 µM	1.03 ± 0.067
SW982, 0.1 µM	1.02 ± 0.022
SW982, 0.3 µM	0.952 ± 0.036
SW1353, 5.081 pM	1.06 ± 0.036
SW1353, 15.24 pM	1.05 ± 0.025
SW1353, 45.72 pM	1.03 ± 0.023
SW1353, 0.000137174 µM	0.994 ± 0.018
SW1353, 0.000411523 µM	1.01 ± 0.027
SW1353, 0.00123457 µM	1.04 ± 0.041
SW1353, 0.0037037 µM	1.02 ± 0.031
SW1353, 0.0111111 µM	1.02 ± 0.089
SW1353, 0.0333333 µM	0.947 ± 0.033
SW1353, 0.1 µM	0.889 ± 0.026
SW1353, 0.3 µM	0.791 ± 0.029
SYO-1, 5.081 pM	1.01 ± 0.024
SYO-1, 15.24 pM	0.951 ± 0.038
SYO-1, 45.72 pM	0.958 ± 0.014
SYO-1, 0.000137174 µM	0.943 ± 0.043
SYO-1, 0.000411523 µM	0.92 ± 0.062
SYO-1, 0.00123457 µM	0.948 ± 0.067
SYO-1, 0.0037037 µM	0.858 ± 0.059
SYO-1, 0.0111111 µM	0.9 ± 0.025
SYO-1, 0.0333333 µM	0.896 ± 0.059
SYO-1, 0.1 µM	0.862 ± 0.034
SYO-1, 0.3 µM	0.89 ± 0.07
VA-ES-BJ, 5.081 pM	1.06 ± 0.045
VA-ES-BJ, 15.24 pM	1.05 ± 0.021
VA-ES-BJ, 45.72 pM	1.02 ± 0.042
VA-ES-BJ, 0.000137174 µM	1.04 ± 0.022
VA-ES-BJ, 0.000411523 µM	0.99 ± 0.0086
VA-ES-BJ, 0.00123457 µM	0.981 ± 0.038
VA-ES-BJ, 0.0037037 µM	1.02 ± 0.013
VA-ES-BJ, 0.0111111 µM	0.983 ± 0.025
VA-ES-BJ, 0.0333333 µM	0.969 ± 0.042
VA-ES-BJ, 0.1 µM	0.9689 ± 0.0074
VA-ES-BJ, 0.3 µM	0.942 ± 0.037
